In US11827628B2, “Compositions and methods for inhibition of the JAK pathway” (Rigel Pharmaceuticals, Inc., priority 2005, dated 2023):

Tests used:
[1] = test system: IL-4 stimulated expression of CD23 in human Ramos B cells (JAK-1 and JAK-3); assay: Assay for Ramos B-Cell Line Stimulated with IL-4 (CD23 upregulation, FACS); format: cell-based; details: Ramos B-cell line stimulated with IL-4; CD23 expression by FACS; read-out: IC50, Example 41
In short: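 Read-out is surface CD23 by FACS after anti-CD23-PE staining, giving IC50. Before this, cells were stimulated 20-24 h with 50 units/mL (final) human IL-4, following 1 h compound or vehicle pre-treatment at 37 °C; log-phase Ramos B cells, 5×10^4 per well in 5% serum RPMI.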

Primary human T-cells = assay: Primary Human T-Cell Proliferation Assay Stimulated with IL-2 (CellTiter-Glo); format: cell-based; details: primary human T-cell proliferation stimulated with IL-2; read-out: IC50, Example 42
In short: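 Peripheral blood T-cells pre-activated with anti-CD3/anti-CD28 and IL-2 were washed free of IL-2, then cultured with compound plus IL-2 for 72 hours at 37° C, duplicate wells. Viability read as ATP by CellTiter-Glo luminescence; IC50 reported.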

## CNS(=O)(=O)c1cc(Nc2ncc(F)c(Nc3ccc(CC#N)cc3)n2)ccc1C [III-1, 5-Fluoro-N2-[3-(N-methylaminosulfony)-4-methylphenyl]-5-fluoro-N4-(4-cyanomethylphenyl)-2,4-pyrimidinediamine]
[1]
  IC50: 151 nM
Primary human T-cells
  IC50: 545 nM

## CCN(CC)CCNS(=O)(=O)c1ccc(Nc2ncc(F)c(Nc3ccc(CC#N)cc3)n2)cc1 [III-2, N2-[4-(2-N,N-Diethylaminoethyl)aminosulfonylphenyl)-5-fluoro-N4-(4-cyanomethylphenyl)-2,4-pyrimidinediamine]
[1]
  IC50: 224 nM
Primary human T-cells
  IC50: 3440 nM

## N#CCc1ccc(Nc2nc(Nc3cccc(S(N)(=O)=O)c3)ncc2F)cc1 [III-4, N2-(3-Aminosulfonyl)phenyl-N4-(4-cyanomethyl)phenyl-5-fluoro-2,4-pyrimidinediamine]
[1]
  IC50: 18.7 nM
Primary human T-cells
  IC50: 171 nM

## Cc1ccc(Nc2ncc(F)c(Nc3ccc(CC#N)cc3)n2)cc1S(N)(=O)=O [III-7, N2-(3-Aminosulfonyl-4-methyl)phenyl-N4-(4-cyanomethyl)phenyl-5-fluoro-2,4-pyrimidinediamine]
[1]
  IC50: 85.1 nM
Primary human T-cells
  IC50: 195 nM

## N#CCc1ccc(Nc2nc(Nc3ccc(Cl)c(S(N)(=O)=O)c3)ncc2F)cc1 [III-8, N2-(3-Aminosulfonyl-4-chloro)phenyl-N4-(4-cyanomethyl)phenyl-5-fluoro-2,4-pyrimidinediamine]
[1]
  IC50: 138 nM
Primary human T-cells
  IC50: 921 nM

## COc1cc(Nc2ncc(F)c(Nc3ccc(CC#N)cc3)n2)ccc1S(N)(=O)=O [III-9, N2-(4-Aminosulfonyl-3-methoxy)phenyl-N4-(4-cyanomethyl)phenyl-5-fluoro-2,4-pyrimidinediamine]
[1]
  IC50: 215 nM
Primary human T-cells
  IC50: 1800 nM

## N#CCc1ccc(Nc2nc(Nc3ccc(F)c(S(N)(=O)=O)c3)ncc2F)cc1 [III-10, N2-(3-Aminosulfonyl-4-fluoro)phenyl-N4-(4-cyanomethyl)phenyl-5-fluoro-2,4-pyrimidinediamine]
[1]
  IC50: 225 nM
Primary human T-cells
  IC50: 922 nM

## Cc1ccc(Nc2ncc(C)c(Nc3ccc(CCC#N)cc3)n2)cc1S(N)(=O)=O [III-11]
[1]
  IC50: 64.2 nM
Primary human T-cells
  IC50: 46 nM

## N#CCCc1ccc(Nc2nc(Nc3cccc(S(N)(=O)=O)c3)ncc2F)cc1 [III-14, N2-(3-aminosulfonylphenyl)-N4-[4-(cyanoethylene)phenyl]-5-fluoro-2,4-pyrimidinediamine]
[1]
  IC50: 140 nM
Primary human T-cells
  IC50: 52.6 nM

## Cc1ccc(Nc2ncc(F)c(Nc3ccc(CCC#N)cc3)n2)cc1S(N)(=O)=O [III-15, N2-(3-Aminosulfonyl-4-methylphenyl)-N4-[4-(cyanoethylene)phenyl]-5-fluoro-2,4-pyrimidinediamine]
[1]
  IC50: 76 nM
Primary human T-cells
  IC50: 107 nM

## N#CCCc1ccc(Nc2nc(Nc3ccc(F)c(S(N)(=O)=O)c3)ncc2F)cc1 [III-16, N2-(3-Aminosulfonyl-4-fluorophenyl)-N4-[4-(cyanoethylene)phenyl]-5-fluoro-2,4-pyrimidinediamine]
[1]
  IC50: 273 nM
Primary human T-cells
  IC50: 342 nM

## Cc1cnc(Nc2ccc(S(N)(=O)=O)cc2)nc1Nc1ccc(CCC#N)cc1 [III-27, N2-(4-Aminosulfonylphenyl)-N4-(4-cyanoethylenephenyl)-5-methyl-2,4-pyrimidinediamine]
[1]
  IC50: 58.3 nM
Primary human T-cells
  IC50: 119 nM

## N#CCCc1ccc(Nc2nc(Nc3cccc(S(N)(=O)=O)c3)ncc2F)cc1C(F)(F)F [III-31, N4-(4-Cyanoethylene-3-trifluoromethylphenyl)-5-fluoro-N2-(3-aminosulfonylphenyl)-2,4-pyrimidinediamine]
[1]
  IC50: 95.4 nM
Primary human T-cells
  IC50: 328 nM

## NS(=O)(=O)c1cccc(Nc2ncc(F)c(Nc3cccc(CNC(=O)C4CC4)c3)n2)c1 [III-39, N2-(3-aminosulfonyl)phenyl-N4-(3-cyclopropylcarbonylaminomethyl)phenyl-5-fluoro-2,4-pyrimidinediamine]
[1]
  IC50: 117 nM
Primary human T-cells
  IC50: 130 nM

## Cc1ccc(Nc2ncc(F)c(Nc3cccc(CNC(=O)C4CC4)c3)n2)cc1S(N)(=O)=O [III-40, N2-(3-aminosulfonyl-4-methyl)phenyl-N4-(3-cyclopropylcarbonylaminomethyl)phenyl-5-fluoro-2,4-pyrimidinediamine]
[1]
  IC50: 134 nM
Primary human T-cells
  IC50: 229 nM

## NS(=O)(=O)c1cccc(Nc2ncc(F)c(Nc3ccc(Cc4ccncc4)cc3)n2)c1 [III-70, N2-(3-Aminosulfonylphenyl)-5-fluoro-N4-[4-(4-pyridinylmethyl)phenyl]-2,4-pyrimidinediamine]
[1]
  IC50: 64.5 nM
Primary human T-cells
  IC50: 169 nM

## N2-(3-Aminocarbonyl-5-methylphenyl)-5-fluoro-N2-[4-(1-ethylpyrazol-5-yl)amidophenyl)-2,4-pyrimidinediamine [II-20]
[1]
  IC50: 428 nM
Primary human T-cells
  IC50: 969 nM

## N2-(3-Aminocarbonyl-5-methylphenyl)-5-fluoro-N2-[4-(1-methylpyrazol-5-yl)amidophenyl)-2,4-pyrimidinediamine [II-21]
[1]
  IC50: 698 nM
Primary human T-cells
  IC50: 1760 nM

## N2-[3-Aminosulfonyl-4-(4-methylpiperazin-1-yl)phenyl]-5-fluoro-N4-[2-fluoro-4-(5-methylisoxazol-3-yl)methyleneoxyphenyl]-2,4-pyrimidinediamine [Compound I-251]
[1]
  IC50: 167 nM
Primary human T-cells
  IC50: 155 nM
